Data on 27 compounds can be found in patent US20100016313A1, “INTESTINAL ALKALINE PHOSPHATASE MODULATORS AND USES THEREOF” (Burnham Institute for Medical Research, priority 2008, published 2010).

This assay deals with T1, human IAP (Homo sapiens, UniProt P09923).
T1 construct: made in house; host or cells: COS-1 cells, transient expression from pCMV-Script; conditioned serum-free medium used as enzyme stock
T1 sequence (P09923 20-503 limits assumed): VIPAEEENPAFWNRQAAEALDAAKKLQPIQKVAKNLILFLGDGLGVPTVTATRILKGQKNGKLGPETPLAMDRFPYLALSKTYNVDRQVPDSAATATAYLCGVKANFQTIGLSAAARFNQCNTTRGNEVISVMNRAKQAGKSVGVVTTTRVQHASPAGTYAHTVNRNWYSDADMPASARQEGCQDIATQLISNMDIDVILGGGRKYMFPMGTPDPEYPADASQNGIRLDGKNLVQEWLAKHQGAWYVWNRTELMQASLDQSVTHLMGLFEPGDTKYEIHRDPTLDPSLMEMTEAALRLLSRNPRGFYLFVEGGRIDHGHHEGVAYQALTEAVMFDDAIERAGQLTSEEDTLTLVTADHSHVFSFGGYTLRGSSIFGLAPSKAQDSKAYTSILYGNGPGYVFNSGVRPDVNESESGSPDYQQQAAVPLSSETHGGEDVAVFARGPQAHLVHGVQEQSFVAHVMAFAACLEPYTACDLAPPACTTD
As to the kind of experiment: IAP assay using CDP-Star (chemiluminescent, dose response). In kind it is biochemical. Particulars: IAP modulators, Tables A-H, positive = inhibitor; for n (Hill coefficient): negative = activator; for IC50: negative Hill coefficient = activator. The text has this: An expression vector pCMV-Script containing cDNA for human IAP, TNAP, PLAP, GCAP, mouse TNAP, dIAP, EAP or gIAP in secreted form (FLAG-tagged) is transfected into COS-1 cells for transient expression using a standard electroporation method. The GPI anchoring site is replaced by a FLAG sequence to make the proteins secreted into the media as well as to test their kinetics in a form immobilized by anti-FLAG antibody (Narisawa, et al, 2007). Medium is changed to serum free medium Opti-MEM (Invitrogen) 24 h later, and media containing secreted proteins was collected 66 hr after electroporation. Conditioned medium filtered by a 2 μm cellulose acetate membrane is supplemented with 0.1% BSA, aliquotted and stored at −80° C.
Human IAP is produced on a large scale to be used in the primary high throughput screening. For a maximum of 200,000 wells including a blank and negative control in each plate, approximately 1600 ml of the recombinant human IAP working solution (8 μl/well×200,000) is used. The working solution is a 1:80 dilution of the stock solution that has AP activity showing ΔOD405 (velocity) ˜300 in 5 min pNPP calorimetric assay. Therefore a minimum of 20 ml of the stock solution (1600÷80) is needed. An enzyme stock is prepared from ten 15 cm φ plates of COS-1 cells using 100 μg plasmid DNA [ten plates×(10 μg DNA/1×10^7 cells per 15 cm φ plate)].
Compound aliquots (4 μL at […] in 10% DMSO) are added to 8 μL of human IAP working solution of a the human IAP stock solution diluted 1:80 in assay buffer (250 mM DEA, pH 9.8, −2.5 mM MgCl2, −0.05 μM ZnCl2). The solution of substrate CDP-Star, disodium 2-chloro-5-(4-methoxyspiro{1,2-dioxetane-3,2′(5′-chloro)-tricyclo[3.3.1.1]3,7 decan}-4-yl)-1-phenyl phosphate (New England Biolabs), (8 μL of 125 μM in water) is added to each well. […] Dispensing of human IAP working solution and CDP-Star is processed using a WellMate bulk dispenser (Matrix). Plates (white 384-well small volume Greiner 784075) are incubated at room temperature for 30 min, and the luminescence signal is measured using a PerkinElmer EnVision multi-mode plate reader. L-Phenylalanine (1 mM final concentration) and 2% DMSO is utilized as an inhibition control and blank, respectively. Data analysis is processed using CBIS software (ChemInnovations, Inc).
The compound is diluted ([…] to 0.03 mM) and incubated with the human IAP enzyme for 30 min prior to addition of substrate. At the same time, human TNAP, human PLAP, human GCAP, mouse TNAP, mouse dIAP, mouse EAP and mouse gIAP is tested to determine enzyme specificity.

With `O=C1C2CC=CCC2C(=O)N1c1ncn[nH]1` (stereo not drawn) [Compound F4, 2-(1H-1,2,4-triazol-5-yl)-3a,4,7,7a-tetrahydro-1H-isoindole-1,3(2H)-dione], the “n (Hill coefficient)” value is reported as −1.61 and the IC50 (as a rule, the concentration that inhibits the measured activity by half) came to 34.5 µM.

For the compound `O=C1C2CCCCC2C(=O)N1c1nc(Cc2ccccc2)n[nH]1` (stereo not drawn) [Compound F2, 2-(3-benzyl-1H-1,2,4-triazol-5-yl)-hexahydro-1H-isoindole-1,3(2H)-dione], the “n (Hill coefficient)” value is recorded as 1.01 and the IC50 stood at 0.0613 µM.

On to `CCOc1ccc(-c2cc(C(=O)O)[nH]n2)cc1` [Compound B9, 3-(4-ethoxyphenyl)-1H-pyrazole-5-carboxylic acid], for which the half-inhibitory concentration (IC50) was over 100 µM.

With `CC(=O)Nc1nnc(SCc2ccc(Br)cc2)[nH]1` [Compound H2, N-[5-(4-bromobenzylthio)-4H-1,2,4-triazol-3-yl)acetamide], the “n (Hill coefficient)” value is −0.563 and half-maximal inhibition (IC50) required 86.4 µM.

`Cn1nc(-c2ccc(F)cc2)cc1C(=O)O` [Compound D1, 3-(4-fluorophenyl)-1-methyl 1H-pyrazole-5 carboxylic acid]: the IC50 is over 100 µM.

For `COC(=O)c1cc(-c2ccc(Cl)cc2Cl)n[nH]1` [Compound B12, methyl 3-(2,4-dichlorophenyl)-1H-pyrazole-5-carboxylate], the “n (Hill coefficient)” value is listed as −1.3 and 9.32 µM corresponded to half-maximal inhibition (IC50).

The compound `Nc1nc(N2C(=O)C3CC=CCC3C2=O)nn1-c1ccccc1` (stereo not drawn) [Compound F12, 2-(5-amino-1-phenyl-1H-1,2,4-triazol-3-yl)-3a,4,7,7a-tetrahydro-1H-isoindole-1,3(2H)-dione] had an IC50 of over 100 µM.

For the compound `COc1ccc(-c2cc(C(=O)O)n[nH]2)cc1` [Compound A3, 5-(4-methoxyphenyl)-1H-pyrazole-3-carboxylic acid], the half-maximal inhibitory concentration (IC50) was over 100 µM.

On to `O=c1cc(CCO)c2c(-c3ccccc3)n[nH]c2o1` [Compound E7, 4-(2-hydroxyethyl)-3-phenylpyrano[2,3-c]pyrazol-6(1H)-one], for which the half-inhibitory concentration (IC50) is over 100 µM.

In turn, `Cc1ccc(-c2cc(C(=O)O)[nH]n2)cc1` [Compound A4, 5-(4-methylphenyl)-1H-pyrazole-3-carboxylic acid] came in with a half-inhibitory concentration (IC50) of over 100 µM.

As for `O=C1C2CC=CCC2C(=O)N1c1nc(-c2ccco2)n[nH]1` (stereo not drawn) [Compound F6, 2-[3-(furan-2-yl)-1H-1,2,4-triazol-5-yl]-3a,4,7,7a-tetrahydro-1H-isoindole-1,3(2H)-dione], the “n (Hill coefficient)” value turned out to be 0.894 and 0.411 µM corresponded to half-maximal inhibition (IC50).

Compound `COC(=O)c1cc(-c2ccccc2)n[nH]1` [Compound A8, methyl 5-phenyl-1H-pyrazole-3-carboxylate] registered a half-maximal inhibitory concentration (IC50) of over 100 µM.

Consider `O=C(O)c1cc(-c2ccccc2O)n[nH]1` [Compound B2, 3-(2-hydroxyphenyl)-1H-pyrazole-5-carboxylic acid], for which the “n (Hill coefficient)” value is −1.92 and the IC50 stood at 7.85 µM.

In the case of `CCOc1ccc(Cl)cc1S(=O)(=O)Nc1cccnc1` [Compound G3, 5-chloro-2-ethoxy-N-(pyridin-3-yl)benzenesulfonamide], the concentration for half-maximal inhibition (IC50) is over 100 µM.

For `O=C(CSc1nnc[nH]1)NCCOc1ccccc1` [Compound H1, 2-(4H-1,2,4-triazol-3-ylthio)-N-(2-phenoxyethyl)acetamide], the IC50 is over 100 µM.

`O=C(O)c1cc(-c2ccc(Cl)cc2)n[nH]1` [Compound A2, 5-(4-chlorophenyl)-1H-pyrazole-3-carboxylic acid] displayed an IC50 of over 100 µM.

In turn, `CCOC(=O)c1cc(-c2ccc3c(c2)OCCO3)n[nH]1` [Compound B16, ethyl 3-(2,3-dihydrobenzo[b][1,4]dioxyin-6-yl)-1H-pyrazole-5-carboxylate] displayed a half-maximal inhibitory concentration (IC50) of over 100 µM.

For the compound `O=C1c2ccccc2C(=O)N1c1nc(Cc2ccccc2)n[nH]1` [Compound F11, 2-(3-benzyl-1H-1,2,4-triazol-5-yl)isoindoline-1,3-dione], the “n (Hill coefficient)” value was 0.5445.

On to `Cc1ccc(Cl)c(N2C(=O)C(Cl)C(N3CCN(C)CC3)C2=O)c1Cl` (stereo not drawn) [Compound H5, 3-chloro-1-(2,6-dichloro-3-methylphenyl)-4-(4-methylpiperazin-1-yl)pyrrolidine-2,5-dione], for which the concentration for half-maximal inhibition (IC50) is over 100 µM.

Regarding `CCc1ccc(-c2cc(C(=O)O)[nH]n2)cc1` [Compound B6, 3-(4-ethylphenyl)-1H-pyrazole-5-carboxylic acid], the IC50 was over 100 µM.

`COC(=O)c1cc(-c2ccc(C)cc2)[nH]n1` [Compound A9, methyl 5-(4-methylphenyl)-1H-pyrazole-3-carboxylate] yielded an IC50 of over 100 µM.

In turn, `CN(C(=O)COC(=O)c1cc(-c2ccc(Br)cc2)[nH]n1)C1CCCCC1` [Compound A11, 2-[cyclohexyl(methyl)amino]-2-oxoethyl 5-(4-bromophenyl)-1H-pyrazole-3-carboxylate] had a concentration for half-maximal inhibition (IC50) of over 100 µM.

As for `O=C1C2CC=CCC2C(=O)N1c1nc(CCc2ccccc2)n[nH]1` (stereo not drawn) [Compound F9, 2-(3-phenethyl-1H-1,2,4-triazol-5-yl)-3a,4,7,7a-tetrahydro-1H-isoindole-1,3(2H)-dione], the “n (Hill coefficient)” value is 0.616 and inhibition was half-maximal at 0.724 µM (IC50).

As to `COC(=O)c1cc(-c2ccc(C)cc2C)n[nH]1` [Compound B13, methyl 3-(2,4-dimethylphenyl)-1H-pyrazole-5-carboxylate], the “n (Hill coefficient)” value is given as −3.035 and half-maximal inhibition (IC50) required 66.1 µM.

For `O=C1C2CCCCC2C(=O)N1c1nc(CCc2ccccc2)n[nH]1` (stereo not drawn) [Compound F3, 2-(3-phenethyl-1H-1,2,4-triazol-5-yl)-hexahydro-1H-isoindole-1,3(2H)-dione], the “n (Hill coefficient)” value was found to be 0.694 and the half-maximal inhibitory concentration (IC50) turned out to be 1.75 µM.

In turn, `CCCCOc1ccc(-c2cc(C(=O)OC)[nH]n2)cc1` [Compound B15, methyl 3-(4-butoxyphenyl)-1H-pyrazole-5-carboxylate] returned a 50% inhibitory concentration (IC50) of over 100 µM.

`COc1cc(C)c(Cl)cc1S(=O)(=O)Nc1cccnc1` [Compound G4, 2-methoxy-4-methyl-5-chloro-N-(pyridin-3-yl)benzenesulfonamide]: the IC50 was over 100 µM.
